This passage reports IC50 results from ChEMBL document CHEMBL1155510, “Scaffold rearrangement of dihydroxypyrimidine inhibitors of HIV integrase: Docking model revisited” (Bioorg Med Chem Lett, 2010).

SMILES strings stand for the structures.

Experiment [1] can be described thus: Inhibition of HIV integrase strand transfer activity. More on the design: species or system Human immunodeficiency virus.
The nature of experiment [2]: Inhibition of HIV integrase 3'-end processing reaction. Set-up: species or system Human immunodeficiency virus.

As to `CNC(=O)c1nc(Cc2ccc(F)cc2)[nH]c(=O)c1O`, the results for the IC50 in experiment [1] and in experiment [2] were 169 µM and > 333 µM, respectively.

Take `CNC(=O)c1nc(C)n(Cc2ccc(F)cc2)c(=O)c1O`: the figures for the IC50 in experiment [1] and in experiment [2] were 111 µM and > 333 µM, respectively.

Regarding `CN(C)CCCNC(=O)c1nc(Cc2ccc(F)cc2)[nH]c(=O)c1O`, the IC50 in experiment [1] and in experiment [2] was > 333 µM in each case.

Regarding `O=C(O)c1nc(Cc2ccc(F)cc2)[nH]c(=O)c1O`, the IC50 in experiment [1] was 243 µM; in experiment [2], > 333 µM.

`CNC(=O)c1nc(Cc2ccc(F)cc2)n(C)c(=O)c1O`: the IC50 is 241 µM in experiment [1] and > 333 µM in experiment [2].

On to `COCCNC(=O)c1nc(Cc2ccc(F)cc2)[nH]c(=O)c1O`, for which the values for the half-maximal inhibitory concentration (IC50) in experiment [1] and in experiment [2] were 206 µM and > 333 µM, respectively.
